Results from patent US6531636B1, “Synthetic endogenous cannabinoids analogues and uses thereof” (priority 1998, dated 2003).

What was measured:
[1] = system: pigeons suffering from emesia caused by cisplatin; experiment: Antiemetic activity, cisplatin-induced emesis in pigeons; type: in vivo; conditions: subcutaneous
Procedure: The compounds of the invention were also evaluated for their potency as an antiemetic agent following the procedure described by Feigenbaum et al., [Eur. J. Pharmacol. 169:159-165 (1989, wherein pigeons suffering from emesia caused by an antineoplastic drug (cisplatin) were used as the model.
Accordingly, each compound was dissolved in Emulphor (detergent):ethanol:saline (5:5:90) and administered subcutaneously to the pigeons. The injection volume was 1.0 ml/kg body weight. Reduction of vomiting with 2-O-Arachidonyl glyceryl ether (HU-310) was 50% when using 3.0 mg of the active ingredient per kg body weight.

[2] = system: female mice, arachidonic acid-induced paw swelling; experiment: Arachidonic acid-induced paw edema in mice; type: in vivo; conditions: paw volume 30 min after arachidonic acid
Procedure: The potency of each of the compounds of the invention were evaluated for their potency to act as anti-inflammatory agents, according to the method described Calhoun W. et al., [Calhoun W. et al. Agents and Actions 21:306-309 (1987)]. In the method, water was substituted for mercury as the displacement medium. Platelet Activating Factor (PAF) (1.0 μg) or arachidonic acid (1.0 mg) dissolved in […] of a saline buffer containing 5% ethanol were injected subcutaneously into the plantar surface of the right hind paw of ether anaesthetized female mice (20-25 gr). The volume of the right foot was measured to the level of the lateral malleous by water displacement before treatment and 15 min after PAF injection or 30 min after arachidonic injection. The change in paw volume was calculated for each mouse. Table 2 presents the inhibition of archidonic acid induced paw swelling. The values obtained are measured as the increase in paw volume using a plethysmometer. The degree of swelling was expressed as the percentage in drug-treated mice compared to inhibition of paw edema from vehicle (Emulphor:ethanol:saline) treated controls (95% significance by ANOVA. N=5 mice/group). Control animals received peanut oil (50 μl).

[3] = biological target: T1, CB1 receptor (Rattus norvegicus, UniProt P20272); experiment: Competitive inhibition of [3H]HU-243 binding to CB1, synaptosomal membranes; conditions: [3H]HU-243 60 pM, synaptosomal membrane protein
T1 construct: 4 μg of synaptosomal membrane protein were homogenized in 50 mM Tris-HCl; from tissue; host or cells: synaptosomal membranes (brain tissue)
T1 sequence (P20272 whole entry): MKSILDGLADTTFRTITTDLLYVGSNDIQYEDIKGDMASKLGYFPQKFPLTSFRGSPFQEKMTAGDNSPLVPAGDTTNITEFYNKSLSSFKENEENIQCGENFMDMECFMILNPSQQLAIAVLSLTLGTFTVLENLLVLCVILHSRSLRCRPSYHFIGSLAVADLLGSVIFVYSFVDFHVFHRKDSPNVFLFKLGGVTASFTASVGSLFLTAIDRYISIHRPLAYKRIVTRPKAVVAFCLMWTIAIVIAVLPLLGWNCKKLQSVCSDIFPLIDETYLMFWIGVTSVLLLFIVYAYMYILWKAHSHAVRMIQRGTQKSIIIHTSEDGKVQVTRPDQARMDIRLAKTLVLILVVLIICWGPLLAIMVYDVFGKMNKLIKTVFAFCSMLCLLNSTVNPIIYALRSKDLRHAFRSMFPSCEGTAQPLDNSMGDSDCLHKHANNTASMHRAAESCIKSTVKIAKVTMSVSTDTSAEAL
Procedure: In principle, 4 μg of synaptosomal membrane protein were homogenized in 50 mM Tris-HCl, 2 mM MgCl2 and 1 mM EDTA pH 7.4 to obtain the binding mixture having a final concentration of 60 pM, with which the Ki was determined according to the assay described by Devane et al. [Devane et al. (1992) ibid.]. […] Ki values were calculated according to following known equation: Ki-IC50/(1+[L]/Kd) wherein IC50 is the concentration of a compound that will reduce a specific binding of a given radioligand by 50%; [L] is the concentration of the radioligand used in the assay and Kd is the dissociation constant for the radioligand (see also FIG. 3).

[4] = system: mice; experiment: Analgesia, standard hot plate test in mice; type: in vivo; conditions: intravenous injection in tail vein
Procedure: The novel compounds prepared as described above were evaluated for their potency in […], according to the standard hot plate test, as briefly described hereinafter.
The compounds of the invention (HU-310, HU-313 and HU-314) wee dissolved in a detergent (Emulphomethanol:saline (5:5:90)) mixture and administered by intravenous injection in the tail vein of mice with an injection volume of 0.1 ml/10 g of body weight.

[5] = system: rats, mean arterial pressure; experiment: Hypotensive effect in non-anaesthetized cannulated rats; type: in vivo; conditions: dose 12 mg/Kg
Procedure: To evaluate the potency of the compounds of the present invention as anti-hypertension agents, each compound was dissolved in a mixture of ethanol:emulphor:saline (1:1:18) and administered to non-anaestisized rats, cannulated through the aorta (for injection) and the jugular view (for measurements of blood pressure). […]

[6] = system: rabbits with chymotrypsin-induced glaucoma; experiment: Antiglaucoma activity, chymotrypsin-induced stable glaucoma in rabbits; type: in vivo; conditions: 0.01% in aqueous solution
From the text: Each compound was further evaluated for their potency as agent for treating and/or preventing glaucoma. Accordingly, stable glaucoma was induced in rabbits by injecting into the eye δ-chymotrypsin as described by Mechoulam R. et al., [Mechoulam R. et al., The Therapeutic Potential of Marihuana eds S. Cohen, R. C. Stillman Plenum Press, N.Y., pp. 35-48 (1975)]. As a control, pilocarpine, a standard antiglaucoma drug, was employed showing intraocular pressure (I.O.P.) reduction at a concentration of 0.01% in aqueous solution and provided a period of 30 hours delay in the recovery of the original chymotrypsin-induced IOP.
The compounds of the invention were each dissolved in a detergent (Emulphor:ethanol:saline (5:5:90)) mixture and then further diluted with saline to obtain the desired concentrations.

Row | SMILES | Analgesia, ED50 [4] [mg/kg] | Latency to maximal effect [5] [min] | Maximal hypotension (difference in mean arterial pressure before and after drug) [5] [mm Hg] | Time of recovery [5] [min] | further results
1 | CCCCC/C=C\C/C=C\C/C=C\C/C=C\CCCCOC(CO)CO [HU-310, 2-O-Arachidonyl glyceryl ether] | 2.8 | 34.0 | 105 | 75.0 | Reduction of vomiting ([1]; 3.0 mg per kg body weight): 50%; Inhibition of Arachidonic Acid-induced Paw Edema ([2]; dose 5 mg/kg): 70.2%; Inhibition of Arachidonic Acid-induced Paw Edema ([2]; dose 10 mg/kg): 92.2%; Inhibition of Arachidonic Acid-induced Paw Edema ([2]; dose 25 mg/kg): 100.0%; Ki [3]: 0.0623 ± 0.003 µM
2 | CC[C@@H]1C(=O)OC[C@@H]1Cc1cncn1C [pilocarpine] | – | – | – | – | Delay in the recovery of the original chymotrypsin-induced IOP [6]: 30 h
3 | CCCCC/C=C\C/C=C\C/C=C\C/C=C\CCCC(=O)OC(CO)CO [2-Ara-GL, 2-arachidonoyl glycerol] | – | 7.2 | 34 | 13.0 | –
4 | CCCCC/C=C\C/C=C\C/C=C\CCCCCCCOC(CO)CO [HU-314, 2-dihomo-γ-linolenyl glyceryl ether] | 4.6 | – | – | – | Reduction of vomiting (in words) ([1]; compared with HU-310): vomiting was also reduced, however to a lesser extent
5 | CCCCC/C=C\C/C=C\C/C=C\C/C=C\CCCC(=O)NCCO [ANA, anandamide] | – | 2.0 | 15 | 7.0 | –
